From the NIST ThermoML archive (doi:10.1016/j.jct.2018.09.031)

Conditions: 101.33 kPa, Liquid; for kinematic viscosity: Capillary tube (Ostwald / Ubbelohde) method; for mass density: Pycnometric method

OCCO [1,2-ethanediol]
Conditions	kinematic viscosity [m2/s]	mass density [kg/m3]
273.15 K	5.1e-05	1127.43
283.15 K	2.96e-05	1120.35
293.15 K	1.92e-05	1113.25
303.15 K	1.28e-05	1106.26
313.15 K	8.8e-06	1099.2
323.15 K	6.22e-06	1092.07
333.15 K	4.6e-06	1084.84
